Measured values: ChEMBL document CHEMBL4823275, “Structure-based molecular hybridization design of Keap1-Nrf2 inhibitors as novel protective agents of acute lung injury” (Eur J Med Chem, 2021)
Active and inactive are the calls of the source. No cut-off for these calls is given here.

How the values were obtained:
[1] = Cytotoxicity against mouse peritoneal macrophages assessed as reduction in cell viability measured after 24 hrs by CCK8 assay; type: cell-based, Peritoneal macrophage
Keap1/Nrf2 = Keap1/Nrf2 (Homo sapiens, UniProt Q14145); experiment: Inhibition of Keap1-Nrf2 (unknown origin) interaction measured after 60 mins by Fluorescence polarization assay; type: protein assay
Mus musculus [2] = experiment: Anti-inflammatory activity against LPS-induced acute lung injury C57BL/6 mouse model assessed as reduction in LPS-induced TNF-alpha secretion in BALF at 5 to 20 mg/kg, ip treated 0.5 hrs before LPS stimulation and measured after 6 hrs by ELISA; type: functional, organism-based; settings: dose 5-20 mg/kg, time 6.5 hrs
Mus musculus [3] = experiment: Anti-inflammatory activity against LPS-induced acute lung injury C57BL/6 mouse model assessed as reduction in LPS-induced IL-1 beta mRNA expression in lungs at 5 to 20 mg/kg, ip treated 0.5 hrs before LPS stimulation and measured after 6 hrs by RT-PCR analysis; type: functional, organism-based; settings: dose 5-20 mg/kg, time 6.5 hrs
[4] = target: T1, Kelch-like ECH-associated protein 1/Nuclear factor erythroid 2-related factor 2 (Mus musculus) (UniProt Q60795+Q9Z2X8); experiment: Inhibition of Keap1-Nrf2 interaction in mouse peritoneal macrophages assessed as increase in nuclear translocation of Nrf2 by measuring increase in nuclear Nrf2 level at 10 uM measured after 3 to 6 hrs by Western blot analysis; type: subcellular; settings: Peritoneal macrophage, Nucleus, time 3-6 hrs
Mus musculus [5] = experiment: (§1) Antiinflammatory activity against LPS-induced acute lung injury C57BL/6 mouse model assessed as mild alveolar thickening with less bleeding points/congestion in lungs at 5 to 20 mg/kg, ip treated 0.5 hrs before LPS stimulation and measured after 6 hrs by hematoxylin and eosin staining based microscopic analysis; type: functional, organism-based; settings: dose 5-20 mg/kg, time 6.5 hrs
Mus musculus [6] = experiment: Anti-inflammatory activity against LPS-induced acute lung injury C57BL/6 mouse model assessed as reduction in LPS-induced IL-6 mRNA expression in lungs at 5 to 20 mg/kg, ip treated 0.5 hrs before LPS stimulation and measured after 6 hrs by RT-PCR analysis; type: functional, organism-based; settings: dose 5-20 mg/kg, time 6.5 hrs
Mus musculus [7] = experiment: Anti-inflammatory activity against LPS-induced acute lung injury C57BL/6 mouse model assessed as reduction in LPS-induced IL-1 beta secretion in BALF at 5 to 20 mg/kg, ip treated 0.5 hrs before LPS stimulation and measured after 6 hrs by ELISA; type: functional, organism-based; settings: dose 5-20 mg/kg, time 6.5 hrs
[8] = target: T1, Kelch-like ECH-associated protein 1/Nuclear factor erythroid 2-related factor 2 (Mus musculus); experiment: Inhibition of Keap1-Nrf2 interaction in mouse peritoneal macrophages assessed as upregulation of HO-1 protein expression at 10 uM by Western blot analysis; type: tissue-based; settings: Peritoneal macrophage, time 1-6 hrs, TDE = time-dependent effect
Mus musculus [9] = experiment: as §1, with “intact” for “mild”, “structure” for “thickening”, “reduced inflammatory cells infiltration” for “less bleeding points/congestion”; type: functional, organism-based; settings: dose 5-20 mg/kg, time 6.5 hrs
[10] = target: T1, Kelch-like ECH-associated protein 1/Nuclear factor erythroid 2-related factor 2 (Mus musculus); experiment: Inhibition of Keap1-Nrf2 interaction in mouse peritoneal macrophages assessed as upregulation of NQO1 protein expression at 10 uM by Western blot analysis; type: tissue-based; settings: Peritoneal macrophage, time 1-6 hrs, TDE = time-dependent effect
[11] = target: T1, Kelch-like ECH-associated protein 1/Nuclear factor erythroid 2-related factor 2 (Mus musculus); experiment: Inhibition of Keap1-Nrf2 interaction in mouse peritoneal macrophages assessed as increase in nuclear translocation of Nrf2 by measuring decrease in cytosolic Nrf2 level at 10 uM measured after 3 to 6 hrs by Western blot analysis; type: subcellular; settings: Peritoneal macrophage, Cytosol, time 3-6 hrs
Peritoneal macrophage [12] = experiment: Antiinflammatory activity against mouse peritoneal macrophages assessed as inhibition of LPS-stimulated ROS production at 10 uM incubated for 6 hrs by DCFH-DA staining based fluorescence analysis; type: functional, cell-based
Mus musculus [13] = experiment: Anti-inflammatory activity against LPS-induced acute lung injury C57BL/6 mouse model assessed as reduction in LPS-induced TNF-alpha mRNA expression in lungs at 5 to 20 mg/kg, ip treated 0.5 hrs before LPS stimulation and measured after 6 hrs by RT-PCR analysis; type: functional, organism-based; settings: dose 5-20 mg/kg, time 6.5 hrs
Peritoneal macrophage [14] = experiment: Antiinflammatory activity against mouse peritoneal macrophages assessed as reduction in LPS-induced TNFalpha production at 10 uM measured after 24 hrs by ELISA; type: functional, cell-based
Mus musculus [15] = experiment: (§2) In vivo inhibition of Keap1-Nrf2 interaction in LPS-induced acute lung injury C57BL/6 mouse model assessed as increase in Nrf2 nuclear translocation in lungs by measuring increase in nuclear Nrf2 level treated intraperitoneally at 0.5 hrs before LPS stimulation and measured after 6 hrs by western blot analysis; type: functional, organism-based; settings: dose 5-20 mg/kg, time 6.5 hrs
Peritoneal macrophage [16] = experiment: Antiinflammatory activity against mouse peritoneal macrophages assessed as inhibition of LPS-induced NO production at 10 uM measured after 24 hrs by Griess assay; type: functional, cell-based
Mus musculus [17] = experiment: as §2, with “measuring decrease” for “measuring increase”, “in cytosolic” for “in nuclear”; type: functional, organism-based; settings: dose 5-20 mg/kg, time 6.5 hrs

T1 sequence (Q60795 whole entry, looked up): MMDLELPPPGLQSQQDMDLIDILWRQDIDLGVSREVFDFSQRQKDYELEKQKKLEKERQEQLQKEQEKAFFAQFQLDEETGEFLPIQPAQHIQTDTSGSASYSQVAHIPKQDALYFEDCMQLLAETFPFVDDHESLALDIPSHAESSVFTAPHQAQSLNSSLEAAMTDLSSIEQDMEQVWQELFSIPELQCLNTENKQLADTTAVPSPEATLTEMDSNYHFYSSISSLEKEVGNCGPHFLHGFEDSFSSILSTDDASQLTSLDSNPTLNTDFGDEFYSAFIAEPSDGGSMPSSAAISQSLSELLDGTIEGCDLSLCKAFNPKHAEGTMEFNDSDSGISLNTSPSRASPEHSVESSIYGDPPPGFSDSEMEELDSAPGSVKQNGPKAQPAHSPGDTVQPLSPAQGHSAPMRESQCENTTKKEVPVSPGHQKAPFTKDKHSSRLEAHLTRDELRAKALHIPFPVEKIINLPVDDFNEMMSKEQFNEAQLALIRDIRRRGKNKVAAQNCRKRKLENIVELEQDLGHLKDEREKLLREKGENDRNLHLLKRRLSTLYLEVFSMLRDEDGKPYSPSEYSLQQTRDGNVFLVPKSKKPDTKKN
T1 sequence (Q9Z2X8 whole entry, looked up): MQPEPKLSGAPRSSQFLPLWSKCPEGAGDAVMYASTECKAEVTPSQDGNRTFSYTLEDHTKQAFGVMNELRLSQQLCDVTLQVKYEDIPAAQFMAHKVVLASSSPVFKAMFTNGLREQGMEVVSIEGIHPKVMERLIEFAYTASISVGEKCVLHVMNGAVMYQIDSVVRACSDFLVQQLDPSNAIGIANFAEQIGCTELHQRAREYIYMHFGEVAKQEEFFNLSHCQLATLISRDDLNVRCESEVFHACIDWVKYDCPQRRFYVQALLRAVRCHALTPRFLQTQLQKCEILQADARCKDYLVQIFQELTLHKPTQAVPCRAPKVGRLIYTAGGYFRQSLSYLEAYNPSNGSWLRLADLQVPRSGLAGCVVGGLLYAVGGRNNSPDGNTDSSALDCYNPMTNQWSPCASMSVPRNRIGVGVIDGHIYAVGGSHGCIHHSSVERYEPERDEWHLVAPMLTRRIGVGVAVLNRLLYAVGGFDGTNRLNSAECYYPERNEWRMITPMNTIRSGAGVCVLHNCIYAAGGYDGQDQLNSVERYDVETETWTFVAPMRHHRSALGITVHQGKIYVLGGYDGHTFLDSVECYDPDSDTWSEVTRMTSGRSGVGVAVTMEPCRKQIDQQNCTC
Chain of Keap1/Nrf2 (Q16236 whole entry): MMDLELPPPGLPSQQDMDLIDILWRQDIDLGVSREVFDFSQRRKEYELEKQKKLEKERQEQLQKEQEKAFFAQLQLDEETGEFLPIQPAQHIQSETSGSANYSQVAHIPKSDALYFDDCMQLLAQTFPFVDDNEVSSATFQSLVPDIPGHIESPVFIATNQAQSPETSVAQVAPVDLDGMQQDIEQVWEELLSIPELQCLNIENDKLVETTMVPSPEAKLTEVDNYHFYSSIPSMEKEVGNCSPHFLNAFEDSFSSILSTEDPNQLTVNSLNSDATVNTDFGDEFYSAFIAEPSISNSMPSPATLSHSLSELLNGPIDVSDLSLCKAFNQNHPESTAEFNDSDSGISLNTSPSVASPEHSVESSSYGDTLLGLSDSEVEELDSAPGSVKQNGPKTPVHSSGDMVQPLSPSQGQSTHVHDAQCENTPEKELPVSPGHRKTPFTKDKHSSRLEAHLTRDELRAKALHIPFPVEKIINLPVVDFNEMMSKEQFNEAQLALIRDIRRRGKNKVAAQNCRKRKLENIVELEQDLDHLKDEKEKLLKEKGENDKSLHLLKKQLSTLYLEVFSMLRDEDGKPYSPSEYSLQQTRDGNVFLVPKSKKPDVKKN
Chain of Keap1/Nrf2 (Q14145 whole entry): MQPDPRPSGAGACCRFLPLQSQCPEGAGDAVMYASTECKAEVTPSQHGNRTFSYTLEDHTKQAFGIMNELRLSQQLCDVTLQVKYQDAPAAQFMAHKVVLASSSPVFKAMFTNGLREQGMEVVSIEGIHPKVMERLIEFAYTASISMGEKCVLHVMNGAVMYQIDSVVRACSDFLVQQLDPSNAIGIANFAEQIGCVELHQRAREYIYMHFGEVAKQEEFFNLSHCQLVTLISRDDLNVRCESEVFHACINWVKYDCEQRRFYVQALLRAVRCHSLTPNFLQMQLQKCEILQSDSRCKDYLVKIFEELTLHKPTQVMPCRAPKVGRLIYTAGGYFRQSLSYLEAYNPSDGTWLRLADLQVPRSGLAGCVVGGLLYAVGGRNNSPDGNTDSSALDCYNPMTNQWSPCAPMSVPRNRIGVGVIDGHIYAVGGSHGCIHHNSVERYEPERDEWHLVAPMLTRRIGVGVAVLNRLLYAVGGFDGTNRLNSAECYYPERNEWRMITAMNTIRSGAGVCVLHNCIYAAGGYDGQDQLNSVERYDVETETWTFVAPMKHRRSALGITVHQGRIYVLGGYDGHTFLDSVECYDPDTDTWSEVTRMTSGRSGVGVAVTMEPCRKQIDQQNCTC

SMILES: COc1ccc(S(=O)(=O)N(CC(N)=O)c2ccc(N(CC(N)=O)S(=O)(=O)c3ccc(S(=O)(=O)CCCCN=C=S)cc3)c3ccccc23)cc1
- CC50 at 24 h [1]: > 10 µM
- Kd (Keap1/Nrf2): > 10 µM

SMILES: COc1ccc(S(=O)(=O)N(CC(N)=O)c2ccc(N(CC(N)=O)S(=O)(=O)c3ccc(SCCCCCN=C=S)cc3)c3ccccc23)cc1
- CC50 at 24 h [1]: > 10 µM
- Kd (Keap1/Nrf2): > 10 µM

SMILES: COc1ccc(S(=O)(=O)N(CC(N)=O)c2ccc(N(CC(N)=O)S(=O)(=O)c3ccc(SCCOCCOCCOCCN=C=S)cc3)c3ccccc23)cc1
- CC50 at 24 h [1]: > 10 µM
- Kd (Keap1/Nrf2): > 10 µM

SMILES: COc1ccc(S(=O)(=O)N(CC(N)=O)c2ccc(N(CC(N)=O)S(=O)(=O)c3ccc([S+]([O-])CCOCCN=C=S)cc3)c3ccccc23)cc1 (centres undefined)
- CC50 at 24 h [1]: > 10 µM
- Kd (Keap1/Nrf2): 3.08 µM

SMILES: COc1ccc(S(=O)(=O)N(CC(N)=O)c2ccc(N(CC(N)=O)S(=O)(=O)c3ccc([S+]([O-])CCCCCN=C=S)cc3)c3ccccc23)cc1 (centres undefined)
- CC50 at 24 h [1]: > 10 µM
- Kd (Keap1/Nrf2): 1.83 µM

SMILES: COc1ccc(S(=O)(=O)N(CC(N)=O)c2ccc(N(CC(N)=O)S(=O)(=O)c3ccc([S+]([O-])CCN=C=S)cc3)c3ccccc23)cc1 (centres undefined)
- CC50 at 24 h [1]: > 10 µM
- Kd (Keap1/Nrf2): 1.49 µM

SMILES: COc1ccc(S(=O)(=O)N(CC(N)=O)c2ccc(N(CC(N)=O)S(=O)(=O)c3ccc([S+]([O-])CCCN=C=S)cc3)c3ccccc23)cc1 (centres undefined)
- CC50 at 24 h [1]: > 10 µM
- Activity (Mus musculus [2]): Active
- Activity (Mus musculus [3]): Active
- inhibition [4]: Active
- Activity (Mus musculus [5]): Active
- Activity (Mus musculus [6]): Active
- Activity (Mus musculus [7]): Active
- inhibition [8]: Tde
- Activity (Mus musculus [9]): Active
- inhibition [10]: Tde
- inhibition [11]: Active
- Activity (Peritoneal macrophage [12]): Active
- Activity (Mus musculus [13]): Active
- Kd (Keap1/Nrf2): 0.455 µM
- Activity (Peritoneal macrophage [14]): Active
- inhibition (Mus musculus [15]): Dose-Dependent Effect
- Activity (Peritoneal macrophage [16]): Active
- inhibition (Mus musculus [17]): Dose-Dependent Effect

SMILES: COc1ccc(S(=O)(=O)N(CC(N)=O)c2ccc(N(CC(N)=O)S(=O)(=O)c3ccc([S+]([O-])CCCCN=C=S)cc3)c3ccccc23)cc1 (centres undefined)
- CC50 at 24 h [1]: > 10 µM
- Kd (Keap1/Nrf2): 1.27 µM

SMILES: COc1ccc(S(=O)(=O)N(CC(N)=O)c2ccc(N(CC(N)=O)S(=O)(=O)c3ccc(SCCOCCN=C=S)cc3)c3ccccc23)cc1
- CC50 at 24 h [1]: > 10 µM
- Kd (Keap1/Nrf2): 8.51 µM

SMILES: COc1ccc(S(=O)(=O)N(CC(N)=O)c2ccc(N(CC(N)=O)S(=O)(=O)c3ccc(S(=O)(=O)CCCCCN=C=S)cc3)c3ccccc23)cc1
- CC50 at 24 h [1]: > 10 µM
- Kd (Keap1/Nrf2): > 10 µM

SMILES: COc1ccc(S(=O)(=O)N(CC(N)=O)c2ccc(N(CC(N)=O)S(=O)(=O)c3ccc(S(=O)(=O)CCN=C=S)cc3)c3ccccc23)cc1
- CC50 at 24 h [1]: > 10 µM
- Activity (Peritoneal macrophage [12]): Active
- Kd (Keap1/Nrf2): 0.658 µM
- Activity (Peritoneal macrophage [14]): Active
- Activity (Peritoneal macrophage [16]): Active

SMILES: C[S+]([O-])CCCCN=C=S (centres undefined) [SULFORAPHANE]
- CC50 at 24 h [1]: > 10 µM
- inhibition [4]: Active
- inhibition [8]: Tde
- inhibition [10]: Tde
- inhibition [11]: Active
- Activity (Peritoneal macrophage [12]): Active
- Activity (Peritoneal macrophage [14]): Active
- Activity (Peritoneal macrophage [16]): Active

SMILES: COc1ccc(S(=O)(=O)N(CC(N)=O)c2ccc(N(CC(N)=O)S(=O)(=O)c3ccc(S(=O)(=O)CCOCCOCCOCCN=C=S)cc3)c3ccccc23)cc1
- CC50 at 24 h [1]: > 10 µM
- Kd (Keap1/Nrf2): > 10 µM

SMILES: COc1ccc(S(=O)(=O)N(CC(N)=O)c2ccc(N(CC(N)=O)S(=O)(=O)c3ccc(SCCOCCOCCN=C=S)cc3)c3ccccc23)cc1
- CC50 at 24 h [1]: > 10 µM
- Kd (Keap1/Nrf2): > 10 µM

SMILES: COc1ccc(S(=O)(=O)N(CC(N)=O)c2ccc(N(CC(N)=O)S(=O)(=O)c3ccc(N=C=S)cc3)c3ccccc23)cc1
- CC50 at 24 h [1]: > 10 µM
- Activity (Peritoneal macrophage [12]): Active
- Kd (Keap1/Nrf2): 0.106 µM
- Activity (Peritoneal macrophage [14]): Active
- Activity (Peritoneal macrophage [16]): Active

SMILES: COc1ccc(S(=O)(=O)N(CC(N)=O)c2ccc(N(CC(N)=O)S(=O)(=O)c3ccc([S+]([O-])CCOCCOCCOCCN=C=S)cc3)c3ccccc23)cc1 (centres undefined)
- CC50 at 24 h [1]: > 10 µM
- Kd (Keap1/Nrf2): > 10 µM

SMILES: COc1ccc(S(=O)(=O)N(CC(N)=O)c2ccc(N(CC(N)=O)S(=O)(=O)c3ccc(S(=O)(=O)CCCN=C=S)cc3)c3ccccc23)cc1
- CC50 at 24 h [1]: > 10 µM
- Kd (Keap1/Nrf2): > 10 µM

SMILES: COc1ccc(S(=O)(=O)N(CC(N)=O)c2ccc(N(CC(N)=O)S(=O)(=O)c3ccc(S(=O)(=O)CCOCCOCCN=C=S)cc3)c3ccccc23)cc1
- CC50 at 24 h [1]: > 10 µM
- Kd (Keap1/Nrf2): 1.22 µM

SMILES: COc1ccc(S(=O)(=O)N(CC(N)=O)c2ccc(N(CC(N)=O)S(=O)(=O)c3ccc(SCCCN=C=S)cc3)c3ccccc23)cc1
- CC50 at 24 h [1]: > 10 µM
- Kd (Keap1/Nrf2): > 10 µM

SMILES: COc1ccc(S(=O)(=O)N(CC(N)=O)c2ccc(N(CC(N)=O)S(=O)(=O)c3ccc(S(=O)(=O)CCOCCN=C=S)cc3)c3ccccc23)cc1
- CC50 at 24 h [1]: > 10 µM
- Kd (Keap1/Nrf2): 2.3 µM

SMILES: COc1ccc(S(=O)(=O)N(CC(N)=O)c2ccc(N(CC(N)=O)S(=O)(=O)c3ccc(SCCN=C=S)cc3)c3ccccc23)cc1
- CC50 at 24 h [1]: > 10 µM
- Kd (Keap1/Nrf2): 3.5 µM

SMILES: COc1ccc(S(=O)(=O)N(CC(N)=O)c2ccc(N(CC(N)=O)S(=O)(=O)c3ccc(SCCCCN=C=S)cc3)c3ccccc23)cc1
- CC50 at 24 h [1]: > 10 µM
- Kd (Keap1/Nrf2): > 10 µM

SMILES: COc1ccc(S(=O)(=O)N(CC(N)=O)c2ccc(N(CC(N)=O)S(=O)(=O)c3ccc([S+]([O-])CCOCCOCCN=C=S)cc3)c3ccccc23)cc1 (centres undefined)
- CC50 at 24 h [1]: > 10 µM
- Kd (Keap1/Nrf2): 1.09 µM
